The source of these data is US20170339949A1, “SUGAR SURFACTANTS AND USE THEREOF IN AGROCHEMICAL COMPOSITIONS” (Clariant International Ltd., priority 2014, published 2017).

For data set [1] the following is noted: weak organic acid; cited from earlier work.
The next data set deals with apple leaf cuticles. The experiment in a line: Membrane penetration test with apple leaf cuticles for mesotrione. The class given is in vitro ADME. The following applies: summary in words of Table 1. The text has this:
Increasing the absorption of systemic active ingredients using the example of mesotrione and test system for measurement of the promotion of penetration of active ingredients
Surfactants can promote the absorption of (active) ingredients through membranes such as skin, films or the plant cuticle. As a “finite-dose” application, it is known for the single administration or application of a solution, cream, gel etc. to a membrane that the absorption of active ingredient can be influenced by some additives such as surfactants even after wetting. This effect is independent of the interfacial effect in water, is often highly concentration-dependent and takes place for the most part after evaporation of water and any solvents present rather than as a result of the interaction, for example, with active ingredient, membrane and environmental factors. […]
The potential of the test substances, which is independent of the surfactant action, to promote foliar absorption of active agrochemical ingredients was determined in membrane penetration tests with apple leaf cuticles for mesotrione. […] At regular intervals, aliquot samples were taken and the proportion of active ingredient penetrated was determined by HPLC. During the experiment, the temperature in the system (block, diffusion cells, liquids, etc.) and the air humidity above the spray coating on the cuticle were known exactly and were monitored. […]

Data set [2] can be described thus: Dynamic surface tension (Krüss PocketDyne BP2100). As to conditions: for Surface tension: 24.6° C. The class given is physicochemical. The text has this:
In the case of plants that are difficult to wet, such as the cereal plants wheat, barley, triticale, rye and oats, in the case of further large-scale crops corn, rice, soya and oilseed rape, and also in the case of almost all weed grasses and numerous dicotyledonous weeds that are difficult to control, such as Chenopodium album or Euphorbium heterophyllum, the promotion of the adsorption of the spray liquid on the green parts of the plant is of crucial significance. This wetting agent effect was therefore also determined for the glucamides.
For a given application technique or parameters (nozzle, pressure, water application rate, distance from the plant surface), the value for the dynamic surface tension in [mN/m] correlates well with the adhesion on plants that are difficult to wet such as barley (or cereals in general) and weed grasses. A value of 50 mN/m (at 20-21° C.) with respect to water (72.8 mN/m) results in an improvement in the adhesion from “zero adhesion” to about 50% (Baur P, Pontzen R 2007. Basic features of plant surface wettability and deposit formation and the impact of adjuvants. In: R E Gaskin ed. Proceeding of the 8th International Symposium on Adjuvants for Agrochemicals. Publisher: International Society for Agrochemical Adjuvants (ISAA), Columbus, Ohio, USA). A value below 60 mN/m at 200 ms gives visibly better adsorption of aqueous spray liquids; in the case of standard flat jet nozzles, optimal wetting is achieved.
The values for dynamic surface tension (Krüss PocketDyne BP2100, T 24.6° C.) are shown below at for the linear C810 glucamide and the decene glucamide and a pelargonamide.

Take `CS(=O)(=O)c1ccc(C(=O)C2C(=O)CCCC2=O)c([N+](=O)[O-])c1` [Mesotrione, mesotrione]: in data set [1], the pKa (usually the pH at which an ionisable group is half protonated) was 3.1.
In the case of `C=CCCCCCCCC(=O)N(C)C[C@H](O)[C@@H](O)[C@H](O)[C@H](O)CO` [N-Methyl-N-dec-9-enoylglucamine, N-methyl-N-dec-9-enoylglucamine], the “Promotion of penetration of mesotrione compared to the linear mixture of C8 and C10 glucamide” value with apple leaf cuticles is recorded as “higher promotion of penetration of mesotrione”. For the same molecule, the Surface tension in data set [2] (conc. 0.6 g/L, 20 ms) turned out to be 70.2 mN/m; in data set [2] (conc. 0.6 g/L, 50 ms), 68.9 mN/m; in data set [2] (conc. 0.6 g/L, 100 ms), 67.6 mN/m; in data set [2] (conc. 0.6 g/L, 200 ms) it was 67.4 mN/m; in data set [2] (conc. 1.25 g/L, 20 ms), 66.4 mN/m; in data set [2] (conc. 1.25 g/L, 50 ms) it was 63.7 mN/m. Besides, the Surface tension in data set [2] (conc. 1.25 g/L, 100 ms) worked out at 61.8 mN/m; in data set [2] (conc. 1.25 g/L, 200 ms) it was 61.0 mN/m; in data set [2] (conc. 2.5 g/L, 20 ms), 59.7 mN/m; in data set [2] (conc. 2.5 g/L, 50 ms), 56.6 mN/m; in data set [2] (conc. 2.5 g/L, 100 ms), 55.5 mN/m; in data set [2] (conc. 2.5 g/L, 200 ms) it was 54.1 mN/m. In addition, the Surface tension in data set [2] (conc. 5 g/L, 20 ms) worked out at 50.5 mN/m; in data set [2] (conc. 5 g/L, 50 ms), 48.3 mN/m; in data set [2] (conc. 5 g/L, 100 ms), 47.7 mN/m; in data set [2] (conc. 5 g/L, 200 ms), 46.6 mN/m. In addition, the “Suitability as wetting agent compared to Synergen GA (C810)” value in data set [2] (summary in words of dynamic surface tension results) was “wetting agent of comparable suitability”.
For the molecule `CCCCCCCCC(=O)N(C)C[C@H](O)[C@@H](O)[C@H](O)[C@H](O)CO` [N-Methyl-N-nonanoylglucamine, N-methyl-N-nonanoylglucamine], the “Promotion of penetration of mesotrione compared to the linear mixture of C8 and C10 glucamide” value in the data set with apple leaf cuticles was “likewise falls short”. Moreover, the Surface tension was 70.2 mN/m in data set [2] (conc. 0.6 g/L, 20 ms); 68.8 mN/m in data set [2] (conc. 0.6 g/L, 50 ms); 67.7 mN/m in data set [2] (conc. 0.6 g/L, 100 ms); 67.1 mN/m in data set [2] (conc. 0.6 g/L, 200 ms); 66.0 mN/m in data set [2] (conc. 1.25 g/L, 20 ms); 63.7 mN/m in data set [2] (conc. 1.25 g/L, 50 ms). Besides, the Surface tension in data set [2] (conc. 1.25 g/L, 100 ms) was determined as 62.6 mN/m; in data set [2] (conc. 1.25 g/L, 200 ms), 61.1 mN/m; in data set [2] (conc. 2.5 g/L, 20 ms), 59.1 mN/m; in data set [2] (conc. 2.5 g/L, 50 ms), 56.3 mN/m; in data set [2] (conc. 2.5 g/L, 100 ms) it was 55.3 mN/m; in data set [2] (conc. 2.5 g/L, 200 ms), 53.8 mN/m. Also, the Surface tension is reported as 47.7 mN/m in data set [2] (conc. 5 g/L, 20 ms); 45.6 mN/m in data set [2] (conc. 5 g/L, 50 ms); 45.2 mN/m in data set [2] (conc. 5 g/L, 100 ms); 44.3 mN/m in data set [2] (conc. 5 g/L, 200 ms).
